Measured values as given in patent US20200048469A1, “POLYMERIC TANDEM DYES HAVING PENDANT NARROW EMISSION ACCEPTOR” (Becton, Dickinson and Company, priority 2018, published 2020).

Experiments:
[1] = Absorption and emission spectra of free narrow emission dyes in ethanol; assay type: physicochemical
Procedure: (§1) A variety of BODIPY dyes were prepared and conjugated to polymeric dyes to prepare polymeric tandem dyes. […] The spectroscopic characteristics of particular BODIPY dyes and polymeric tandem dyes including the same were assessed. […] Further details of exemplary BODPY dyes and tandem dyes including the same are provided below in Tables 1 and 2.

[2] = Spectroscopic characterization of BODIPY dyes (absorption, emission, FWHM, quantum yield); assay type: physicochemical; conditions: for Abs Max / Em Max: Table 1, free dye, solvent not stated; for FWHM: Table 1, full width half maximum of emission, free dye
Procedure: as §1

| Abs Max [2] | Em Max [2] | FWHM [2] | Molecule | also measured |
| --- | --- | --- | --- | --- |
| 550 nm | 570 nm | 30 nm | BODIPY TMR | – |
| 582 nm | 590 nm | 29 nm | BODIPY 581/591 | – |
| 533 nm | 550 nm | 26 nm | O=C(O)CCc1ccc2n1[B-](F)(F)[N+]1=C(c3ccccc3)C=CC1=C2 [BODIPY R6G] | – |
| 650 nm | 665 nm | 37 nm | BODIPY 650/665 | – |

The remaining lines, values behind:

| Molecule | Abs Max [2] | Em Max [2] | FWHM [2] | also measured |
| --- | --- | --- | --- | --- |
| CCN1C(=CC=CC=CC=CC2=[N+](CCCCCC(=O)O)c3ccc(S(=O)(=O)O)cc3C2(C)C)C(C)(C)c2cc(S(=O)(=O)[O-])ccc21 [Cy7] | – | – | – | Dye Abs. max ([1]; dye in ethanol): 752 nm; Dye Em. FWHM ([1]; dye in ethanol): 52 nm; Dye Em. Max ([1]; dye in ethanol): 776 nm; Dye Stokes Shift ([1]; dye in ethanol): 24 nm |
| BODIPY 630/650 | 630 nm | 641 nm | 30 nm | – |
| BODIPY TR | 590 nm | 620 nm | 35 nm | – |
| CF594 | – | – | – | Dye Abs. max ([1]; measured in DMAC): 592 nm; Dye Em. FWHM ([1]; measured in DMAC): 37 nm; Dye Em. Max ([1]; measured in DMAC): 615 nm; Dye Stokes Shift ([1]; measured in DMAC): 23 nm |
| CCN1/C(=C/C=C/C=C/C2=[N+](CCCCCC(=O)O)c3ccc(S(=O)(=O)O)cc3C2(C)C)C(C)(C)c2cc(S(=O)(=O)[O-])ccc21 [Cy5] | – | – | – | Dye Abs. max ([1]; dye in ethanol): 649 nm; Dye Em. FWHM ([1]; dye in ethanol): 35 nm; Dye Em. Max ([1]; dye in ethanol): 666 nm; Dye Stokes Shift ([1]; dye in ethanol): 17 nm |
| Cc1cc(C)n2c1C=C1C=CC(CCC(=O)O)=[N+]1[B-]2(F)F [BODIPY FL] | 505 nm | 513 nm | 21 nm | – |
| CCN1\C(=C/C=C/C=C/C2=[N+](CCCCCC(=O)O)c3ccc4c(S(=O)(=O)O)cc(S(=O)(=O)O)cc4c3C2(C)C)C(C)(C)c2c1ccc1c(S(=O)(=O)[O-])cc(S(=O)(=O)O)cc21 [Cy5.5] | – | – | – | Dye Abs. max ([1]; dye in ethanol): 673 nm; Dye Em. FWHM ([1]; dye in ethanol): 42 nm; Dye Em. Max ([1]; dye in ethanol): 691 nm; Dye Stokes Shift ([1]; dye in ethanol): 18 nm |
